# Measured values as given in ChEMBL document CHEMBL3885881, “DrugMatrix”.
# Organism: Rattus norvegicus
# Test: DrugMatrix - Regimen: Daily Repeat
# Format: toxicity, organism-based, Sprague-Dawley
# Parameters: regimen Daily Repeat, gender Male, age 6-8 weeks
# Details: in vivo, po, 26 mg/kg, route oral GAVAGE, dose level High, vehicle .5 % CMC; for ABSOLUTE BASOPHIL / ABSOLUTE EOSINOPHIL / ABSOLUTE LYMPHOCYTE / ABSOLUTE MONOCYTE / ABSOLUTE SEGMENTED NEUTROPHIL / BASOPHIL / EOSINOPHIL / ERYTHROCYTE COUNT / HEMATOCRIT / HEMOGLOBIN / LEUKOCYTE COUNT / LYMPHOCYTE / MEAN CORPUSCULAR HEMOGLOBIN / MEAN CORPUSCULAR HEMOGLOBIN CONCENTRATION / MEAN CORPUSCULAR VOLUME / MONOCYTE / NEUTROPHIL / NUCLEATED RED BLOOD CELLS / PLATELET COUNT: tissue Blood; for ALANINE AMINOTRANSFERASE / ALBUMIN / ALKALINE PHOSPHATASE / ASPARTATE AMINOTRANSFERASE / BLOOD UREA NITROGEN / CARBON DIOXIDE / CHLORIDE / CHOLESTEROL / CREATINE PHOSPHOKINASE / CREATININE / GLUCOSE / LACTATE DEHYDROGENASE / LIPASE / PHOSPHORUS / POTASSIUM / SODIUM / TOTAL BILIRUBIN / TOTAL PROTEIN / URIC ACID: tissue Plasma
smiles,measurement,setting,value
Nc1nnc(-c2cccc(Cl)c2Cl)c(N)n1 [LAMOTRIGINE],ABSOLUTE BASOPHIL,"72 h, time 3 day",0 CELLS/uL
same,ABSOLUTE EOSINOPHIL,"72 h, time 3 day",0 CELLS/uL
same,ABSOLUTE LYMPHOCYTE,"72 h, time 3 day",13769 CELLS/uL
same,ABSOLUTE MONOCYTE,"72 h, time 3 day",39.33 CELLS/uL
same,ABSOLUTE SEGMENTED NEUTROPHIL,"72 h, time 3 day",558.33 CELLS/uL
same,BASOPHIL,"72 h, time 3 day",0%
same,EOSINOPHIL,"72 h, time 3 day",0%
same,ERYTHROCYTE COUNT,"72 h, time 3 day",5.86 x10E6/uL
same,HEMATOCRIT,"72 h, time 3 day",39.23%
same,HEMOGLOBIN,"72 h, time 3 day",14.47 G/DL
same,LEUKOCYTE COUNT,"72 h, time 3 day",14.37 x10E3/uL
same,LYMPHOCYTE,"72 h, time 3 day",95.67%
same,MEAN CORPUSCULAR HEMOGLOBIN,"72 h, time 3 day",24.67 pg
same,MEAN CORPUSCULAR HEMOGLOBIN CONCENTRATION,"72 h, time 3 day",36.9 G/DL
same,MEAN CORPUSCULAR VOLUME,"72 h, time 3 day",66.93 fL
same,MONOCYTE,"72 h, time 3 day",0.33%
same,NEUTROPHIL,"72 h, time 3 day",4%
same,NUCLEATED RED BLOOD CELLS,"72 h, time 3 day",0.33 /100WBC
same,PLATELET COUNT,"72 h, time 3 day",1200 x10E3/uL
same,ALANINE AMINOTRANSFERASE,"72 h, time 3 day",73 u/L
same,ALBUMIN,"72 h, time 3 day",4.6 G/DL
same,ALKALINE PHOSPHATASE,"72 h, time 3 day",355.33 u/L
same,ASPARTATE AMINOTRANSFERASE,"72 h, time 3 day",139.67 u/L
same,BLOOD UREA NITROGEN,"72 h, time 3 day",13 mg/dL
same,CARBON DIOXIDE,"72 h, time 3 day",24.67 mmol/L
same,CHLORIDE,"72 h, time 3 day",102 MEQ/L
same,CHOLESTEROL,"72 h, time 3 day",91 mg/dL
same,CREATINE PHOSPHOKINASE,"72 h, time 3 day",1448.33 u/L
same,CREATININE,"72 h, time 3 day",0.29 mg/dL
same,GLUCOSE,"72 h, time 3 day",138 mg/dL
same,LACTATE DEHYDROGENASE,"72 h, time 3 day",373.67 u/L
same,LIPASE,"72 h, time 3 day",10.33 u/L
same,PHOSPHORUS,"72 h, time 3 day",13.67 mg/dL
same,POTASSIUM,"72 h, time 3 day",7.33 MEQ/L
same,SODIUM,"72 h, time 3 day",146.47 MEQ/L
same,TOTAL BILIRUBIN,"72 h, time 3 day",0.2 mg/dL
same,TOTAL PROTEIN,"72 h, time 3 day",6.5 G/DL
same,URIC ACID,"72 h, time 3 day",3 mg/dL
same,ABSOLUTE BASOPHIL,"120 h, time 5 day",0 CELLS/uL
same,ABSOLUTE EOSINOPHIL,"120 h, time 5 day",0 CELLS/uL
same,ABSOLUTE LYMPHOCYTE,"120 h, time 5 day",13660 CELLS/uL
same,ABSOLUTE MONOCYTE,"120 h, time 5 day",181.67 CELLS/uL
same,ABSOLUTE SEGMENTED NEUTROPHIL,"120 h, time 5 day",558.33 CELLS/uL
same,BASOPHIL,"120 h, time 5 day",0%
same,EOSINOPHIL,"120 h, time 5 day",0%
same,ERYTHROCYTE COUNT,"120 h, time 5 day",5.81 x10E6/uL
same,HEMATOCRIT,"120 h, time 5 day",37.13%
same,HEMOGLOBIN,"120 h, time 5 day",14.03 G/DL
same,LEUKOCYTE COUNT,"120 h, time 5 day",14.4 x10E3/uL
same,LYMPHOCYTE,"120 h, time 5 day",95%
same,MEAN CORPUSCULAR HEMOGLOBIN,"120 h, time 5 day",24.17 pg
same,MEAN CORPUSCULAR HEMOGLOBIN CONCENTRATION,"120 h, time 5 day",37.8 G/DL
same,MEAN CORPUSCULAR VOLUME,"120 h, time 5 day",63.93 fL
same,MONOCYTE,"120 h, time 5 day",1.33%
same,NEUTROPHIL,"120 h, time 5 day",3.67%
same,NUCLEATED RED BLOOD CELLS,"120 h, time 5 day",0.33 /100WBC
same,PLATELET COUNT,"120 h, time 5 day",1279.33 x10E3/uL
same,ALANINE AMINOTRANSFERASE,"120 h, time 5 day",64.67 u/L
same,ALBUMIN,"120 h, time 5 day",4.4 G/DL
same,ALKALINE PHOSPHATASE,"120 h, time 5 day",331.33 u/L
same,ASPARTATE AMINOTRANSFERASE,"120 h, time 5 day",78 u/L
same,BLOOD UREA NITROGEN,"120 h, time 5 day",18.67 mg/dL
same,CARBON DIOXIDE,"120 h, time 5 day",27.67 mmol/L
same,CHLORIDE,"120 h, time 5 day",103 MEQ/L
same,CHOLESTEROL,"120 h, time 5 day",75.67 mg/dL
same,CREATINE PHOSPHOKINASE,"120 h, time 5 day",225 u/L
same,CREATININE,"120 h, time 5 day",0.28 mg/dL
same,GLUCOSE,"120 h, time 5 day",163 mg/dL
same,LACTATE DEHYDROGENASE,"120 h, time 5 day",110.33 u/L
same,LIPASE,"120 h, time 5 day",10.67 u/L
same,PHOSPHORUS,"120 h, time 5 day",12.43 mg/dL
same,POTASSIUM,"120 h, time 5 day",7.41 MEQ/L
same,SODIUM,"120 h, time 5 day",147.97 MEQ/L
same,TOTAL BILIRUBIN,"120 h, time 5 day",0.2 mg/dL
same,TOTAL PROTEIN,"120 h, time 5 day",6.2 G/DL
same,URIC ACID,"120 h, time 5 day",2.03 mg/dL
